Holding throughout (test): KINOMEscan
Common to all, as to assay type: binding
Conditions in all cases: read-out: % control activity remaining

In assay [1] the target is T1, ABL1(F317L)-phosphorylated (Homo sapiens, UniProt P00519, F317L).
T1 construct: purchased Eurofins DiscoverX KINOMEscan

A further assay addresses T2, CDC2L1 (Homo sapiens, UniProt P21127).
T2 construct: purchased Eurofins DiscoverX KINOMEscan

For a further assay, the target named is T3, CDC2L5 (Homo sapiens, UniProt Q14004).
T3 construct: purchased Eurofins DiscoverX KINOMEscan
T3 sequence (Q14004 whole entry): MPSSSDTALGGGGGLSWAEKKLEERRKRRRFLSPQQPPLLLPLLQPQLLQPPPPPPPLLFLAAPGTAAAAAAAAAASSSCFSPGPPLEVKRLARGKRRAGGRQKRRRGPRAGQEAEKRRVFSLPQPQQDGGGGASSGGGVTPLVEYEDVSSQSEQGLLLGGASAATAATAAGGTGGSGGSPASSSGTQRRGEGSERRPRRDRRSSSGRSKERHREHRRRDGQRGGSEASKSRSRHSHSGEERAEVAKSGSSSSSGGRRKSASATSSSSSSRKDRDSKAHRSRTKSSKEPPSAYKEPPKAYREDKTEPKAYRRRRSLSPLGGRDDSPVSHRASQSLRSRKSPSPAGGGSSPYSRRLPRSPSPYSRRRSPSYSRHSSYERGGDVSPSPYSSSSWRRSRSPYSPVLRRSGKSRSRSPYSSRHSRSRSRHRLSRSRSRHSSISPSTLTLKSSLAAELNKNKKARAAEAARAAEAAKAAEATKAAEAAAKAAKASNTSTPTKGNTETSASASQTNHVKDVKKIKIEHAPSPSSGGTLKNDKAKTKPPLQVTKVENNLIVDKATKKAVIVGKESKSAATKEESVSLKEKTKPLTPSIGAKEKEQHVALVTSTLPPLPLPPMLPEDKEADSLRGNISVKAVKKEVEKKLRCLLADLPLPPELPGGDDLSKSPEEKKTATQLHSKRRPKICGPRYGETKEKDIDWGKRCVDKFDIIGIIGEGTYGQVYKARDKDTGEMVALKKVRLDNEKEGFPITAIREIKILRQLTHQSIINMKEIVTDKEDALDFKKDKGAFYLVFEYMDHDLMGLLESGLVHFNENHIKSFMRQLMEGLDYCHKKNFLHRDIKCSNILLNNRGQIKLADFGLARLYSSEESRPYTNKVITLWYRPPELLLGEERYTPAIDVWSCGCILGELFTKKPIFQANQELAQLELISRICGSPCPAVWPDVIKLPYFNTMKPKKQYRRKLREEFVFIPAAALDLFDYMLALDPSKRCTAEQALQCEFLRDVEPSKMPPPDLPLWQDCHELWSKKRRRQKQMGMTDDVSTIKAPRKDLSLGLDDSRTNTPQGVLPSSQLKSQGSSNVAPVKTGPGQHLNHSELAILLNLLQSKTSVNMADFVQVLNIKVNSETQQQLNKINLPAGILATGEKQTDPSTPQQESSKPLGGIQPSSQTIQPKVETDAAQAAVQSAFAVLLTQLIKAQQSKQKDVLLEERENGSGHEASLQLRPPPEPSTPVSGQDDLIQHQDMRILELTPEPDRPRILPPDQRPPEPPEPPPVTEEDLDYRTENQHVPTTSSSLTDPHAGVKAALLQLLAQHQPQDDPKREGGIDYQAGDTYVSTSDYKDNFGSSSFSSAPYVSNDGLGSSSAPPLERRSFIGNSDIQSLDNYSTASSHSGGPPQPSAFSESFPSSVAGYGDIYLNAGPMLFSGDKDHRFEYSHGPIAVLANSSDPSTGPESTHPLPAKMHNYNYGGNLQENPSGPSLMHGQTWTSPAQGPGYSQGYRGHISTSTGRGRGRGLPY

A further assay has as its target T4, EGFR(L858R) (Homo sapiens, UniProt P00533, L858R).
T4 construct: purchased Eurofins DiscoverX KINOMEscan

Assay [2] deals with T5, JAK3(JH1domain-catalytic) (Homo sapiens, UniProt P52333).
T5 construct: JAK3(JH1domain-catalytic); purchased Eurofins DiscoverX KINOMEscan
T5 sequence (P52333 822-1124 limits assumed): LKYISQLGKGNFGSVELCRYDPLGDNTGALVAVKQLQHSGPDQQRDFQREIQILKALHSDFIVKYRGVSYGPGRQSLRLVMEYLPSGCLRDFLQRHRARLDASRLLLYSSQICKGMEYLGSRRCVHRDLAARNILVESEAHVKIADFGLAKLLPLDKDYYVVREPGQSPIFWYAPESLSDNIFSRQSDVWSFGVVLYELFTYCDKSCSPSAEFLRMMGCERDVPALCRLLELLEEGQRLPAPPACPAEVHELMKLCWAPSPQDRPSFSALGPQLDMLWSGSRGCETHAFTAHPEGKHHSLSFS

The next assay deals with T6, PDGFRA (Homo sapiens, UniProt P16234).
T6 construct: purchased Eurofins DiscoverX KINOMEscan
T6 sequence (P16234 24-1089): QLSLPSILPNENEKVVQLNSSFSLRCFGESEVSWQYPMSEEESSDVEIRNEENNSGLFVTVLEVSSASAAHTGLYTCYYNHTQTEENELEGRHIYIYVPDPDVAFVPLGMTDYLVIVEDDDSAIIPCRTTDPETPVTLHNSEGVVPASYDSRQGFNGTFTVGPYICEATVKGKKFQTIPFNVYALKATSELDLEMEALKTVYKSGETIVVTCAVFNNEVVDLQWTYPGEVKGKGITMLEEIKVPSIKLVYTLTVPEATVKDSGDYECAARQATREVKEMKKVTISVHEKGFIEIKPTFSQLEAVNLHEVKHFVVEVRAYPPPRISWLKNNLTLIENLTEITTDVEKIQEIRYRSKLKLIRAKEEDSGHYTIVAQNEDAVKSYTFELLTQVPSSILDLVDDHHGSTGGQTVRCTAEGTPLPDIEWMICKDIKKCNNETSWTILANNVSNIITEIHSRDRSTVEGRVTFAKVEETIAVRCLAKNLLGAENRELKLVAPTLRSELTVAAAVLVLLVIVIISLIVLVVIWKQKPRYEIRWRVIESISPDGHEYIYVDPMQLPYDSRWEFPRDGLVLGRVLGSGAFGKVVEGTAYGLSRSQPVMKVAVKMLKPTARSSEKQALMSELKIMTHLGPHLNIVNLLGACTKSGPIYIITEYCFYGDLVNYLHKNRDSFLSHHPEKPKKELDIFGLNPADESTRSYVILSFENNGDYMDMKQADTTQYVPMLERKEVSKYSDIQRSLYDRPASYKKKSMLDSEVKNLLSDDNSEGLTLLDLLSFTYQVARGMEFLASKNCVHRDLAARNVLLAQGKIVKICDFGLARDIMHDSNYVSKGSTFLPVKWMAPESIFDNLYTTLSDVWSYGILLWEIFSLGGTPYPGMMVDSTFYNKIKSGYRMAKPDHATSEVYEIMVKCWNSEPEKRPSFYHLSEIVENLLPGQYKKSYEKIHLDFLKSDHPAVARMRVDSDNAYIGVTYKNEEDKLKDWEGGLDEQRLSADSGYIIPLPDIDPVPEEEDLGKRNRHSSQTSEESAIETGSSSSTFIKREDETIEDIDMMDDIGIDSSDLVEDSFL

For the next assay, the target named is T7, PIK3CA (Homo sapiens, UniProt P42336).
T7 construct: purchased Eurofins DiscoverX KINOMEscan
T7 sequence (P42336 whole entry): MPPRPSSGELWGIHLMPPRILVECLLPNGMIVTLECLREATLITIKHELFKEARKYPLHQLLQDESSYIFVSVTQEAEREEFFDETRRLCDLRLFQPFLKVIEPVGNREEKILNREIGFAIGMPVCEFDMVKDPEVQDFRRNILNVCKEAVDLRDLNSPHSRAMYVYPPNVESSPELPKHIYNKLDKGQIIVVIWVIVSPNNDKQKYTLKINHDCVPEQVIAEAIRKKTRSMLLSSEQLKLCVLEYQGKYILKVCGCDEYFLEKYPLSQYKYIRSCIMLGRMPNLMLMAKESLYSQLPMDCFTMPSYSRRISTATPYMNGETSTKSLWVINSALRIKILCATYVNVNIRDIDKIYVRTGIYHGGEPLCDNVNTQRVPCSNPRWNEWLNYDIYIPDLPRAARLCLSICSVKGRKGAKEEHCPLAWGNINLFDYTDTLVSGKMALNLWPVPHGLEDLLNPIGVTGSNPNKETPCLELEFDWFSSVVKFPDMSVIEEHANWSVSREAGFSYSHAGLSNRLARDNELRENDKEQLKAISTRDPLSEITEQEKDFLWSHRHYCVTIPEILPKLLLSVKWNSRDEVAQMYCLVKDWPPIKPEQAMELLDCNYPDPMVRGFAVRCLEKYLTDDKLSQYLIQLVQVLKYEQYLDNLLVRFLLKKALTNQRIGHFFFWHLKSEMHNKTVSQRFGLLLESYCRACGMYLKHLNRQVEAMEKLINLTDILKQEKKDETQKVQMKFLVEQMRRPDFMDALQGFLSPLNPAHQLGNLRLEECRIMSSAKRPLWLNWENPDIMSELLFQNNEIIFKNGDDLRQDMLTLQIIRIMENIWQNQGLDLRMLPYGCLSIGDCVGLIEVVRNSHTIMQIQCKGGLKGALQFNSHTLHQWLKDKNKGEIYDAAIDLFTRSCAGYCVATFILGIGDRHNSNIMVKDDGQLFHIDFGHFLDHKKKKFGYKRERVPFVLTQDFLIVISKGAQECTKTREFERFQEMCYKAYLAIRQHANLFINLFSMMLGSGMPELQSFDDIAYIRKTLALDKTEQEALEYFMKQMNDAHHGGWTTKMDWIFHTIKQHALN

A further assay concerns the target T8, QSK (Homo sapiens, UniProt Q9Y2K2).
T8 construct: purchased Eurofins DiscoverX KINOMEscan

The next assay addresses T9, STK35 (Homo sapiens, UniProt Q8TDR2).
T9 construct: purchased Eurofins DiscoverX KINOMEscan

The target in the next assay is T10, SYK (Homo sapiens, UniProt P43405).
T10 construct: purchased Eurofins DiscoverX KINOMEscan

For the next assay, the target named is T11, TAOK1 (Homo sapiens, UniProt Q7L7X3).
T11 construct: purchased Eurofins DiscoverX KINOMEscan
T11 sequence (Q7L7X3 1-1001): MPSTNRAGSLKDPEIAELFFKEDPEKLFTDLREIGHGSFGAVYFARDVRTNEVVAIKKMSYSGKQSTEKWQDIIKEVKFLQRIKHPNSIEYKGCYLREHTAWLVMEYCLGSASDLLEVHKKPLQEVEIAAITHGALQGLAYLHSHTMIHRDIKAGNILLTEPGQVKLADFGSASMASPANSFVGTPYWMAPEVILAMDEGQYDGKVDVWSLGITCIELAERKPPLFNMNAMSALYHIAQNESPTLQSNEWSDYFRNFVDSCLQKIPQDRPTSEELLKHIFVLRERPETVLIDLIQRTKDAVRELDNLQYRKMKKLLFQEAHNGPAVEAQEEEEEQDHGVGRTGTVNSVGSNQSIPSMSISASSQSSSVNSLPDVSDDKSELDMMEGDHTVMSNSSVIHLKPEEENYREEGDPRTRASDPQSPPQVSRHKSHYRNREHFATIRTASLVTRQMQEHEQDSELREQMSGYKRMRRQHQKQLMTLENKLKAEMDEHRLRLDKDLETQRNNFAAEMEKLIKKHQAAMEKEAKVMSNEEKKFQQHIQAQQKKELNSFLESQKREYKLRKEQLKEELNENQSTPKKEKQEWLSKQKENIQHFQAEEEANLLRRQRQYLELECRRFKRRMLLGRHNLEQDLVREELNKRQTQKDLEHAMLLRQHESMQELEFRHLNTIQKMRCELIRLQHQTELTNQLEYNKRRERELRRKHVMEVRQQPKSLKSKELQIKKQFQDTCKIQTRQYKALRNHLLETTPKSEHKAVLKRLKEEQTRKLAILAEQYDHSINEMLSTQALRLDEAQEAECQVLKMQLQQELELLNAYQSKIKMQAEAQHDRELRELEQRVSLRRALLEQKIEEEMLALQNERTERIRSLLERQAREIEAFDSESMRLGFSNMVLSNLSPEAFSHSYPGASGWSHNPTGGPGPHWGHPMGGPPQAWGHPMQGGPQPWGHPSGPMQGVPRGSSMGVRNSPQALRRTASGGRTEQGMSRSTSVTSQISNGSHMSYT

The target in the next assay is T12, YSK4 (Homo sapiens, UniProt Q56UN5).
T12 construct: purchased Eurofins DiscoverX KINOMEscan
T12 sequence (Q56UN5 1-1328): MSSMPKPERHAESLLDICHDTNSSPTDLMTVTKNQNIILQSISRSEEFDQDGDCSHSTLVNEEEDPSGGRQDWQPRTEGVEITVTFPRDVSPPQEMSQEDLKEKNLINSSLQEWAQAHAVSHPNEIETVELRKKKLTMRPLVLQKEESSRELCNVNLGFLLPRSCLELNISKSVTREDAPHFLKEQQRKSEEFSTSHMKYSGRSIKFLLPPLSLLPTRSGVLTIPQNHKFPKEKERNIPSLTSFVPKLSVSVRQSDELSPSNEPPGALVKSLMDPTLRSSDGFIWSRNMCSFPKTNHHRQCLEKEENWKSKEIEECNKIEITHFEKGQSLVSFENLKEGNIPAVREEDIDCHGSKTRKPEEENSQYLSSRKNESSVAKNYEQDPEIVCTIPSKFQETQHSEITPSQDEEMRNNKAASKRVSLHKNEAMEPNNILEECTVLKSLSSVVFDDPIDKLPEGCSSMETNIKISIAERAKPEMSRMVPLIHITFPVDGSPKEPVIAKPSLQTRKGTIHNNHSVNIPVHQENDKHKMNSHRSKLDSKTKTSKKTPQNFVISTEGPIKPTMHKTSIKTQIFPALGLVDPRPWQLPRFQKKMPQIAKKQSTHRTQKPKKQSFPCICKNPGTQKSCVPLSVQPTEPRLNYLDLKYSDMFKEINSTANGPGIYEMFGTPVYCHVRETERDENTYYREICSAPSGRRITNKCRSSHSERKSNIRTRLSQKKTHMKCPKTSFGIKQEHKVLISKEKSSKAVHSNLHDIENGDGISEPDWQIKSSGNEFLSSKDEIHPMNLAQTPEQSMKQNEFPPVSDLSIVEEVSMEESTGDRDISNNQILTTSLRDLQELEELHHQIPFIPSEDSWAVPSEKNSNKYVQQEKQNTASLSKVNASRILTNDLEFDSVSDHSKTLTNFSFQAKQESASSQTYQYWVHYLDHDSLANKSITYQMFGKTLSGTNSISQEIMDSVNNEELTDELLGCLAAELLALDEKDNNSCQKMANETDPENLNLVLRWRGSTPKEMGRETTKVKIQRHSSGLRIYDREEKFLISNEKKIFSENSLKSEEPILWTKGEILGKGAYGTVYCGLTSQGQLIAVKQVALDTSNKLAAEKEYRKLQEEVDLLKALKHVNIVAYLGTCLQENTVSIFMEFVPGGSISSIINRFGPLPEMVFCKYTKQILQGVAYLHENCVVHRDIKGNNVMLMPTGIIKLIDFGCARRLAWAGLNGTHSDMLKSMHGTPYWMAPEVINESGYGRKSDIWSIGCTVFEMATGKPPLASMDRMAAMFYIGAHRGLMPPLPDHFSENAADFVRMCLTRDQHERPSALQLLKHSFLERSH

The results in this text go back to publication PMC6437697 (Journal of Medicinal Chemistry, 2019).

T9 sequence (Q8TDR2 whole entry): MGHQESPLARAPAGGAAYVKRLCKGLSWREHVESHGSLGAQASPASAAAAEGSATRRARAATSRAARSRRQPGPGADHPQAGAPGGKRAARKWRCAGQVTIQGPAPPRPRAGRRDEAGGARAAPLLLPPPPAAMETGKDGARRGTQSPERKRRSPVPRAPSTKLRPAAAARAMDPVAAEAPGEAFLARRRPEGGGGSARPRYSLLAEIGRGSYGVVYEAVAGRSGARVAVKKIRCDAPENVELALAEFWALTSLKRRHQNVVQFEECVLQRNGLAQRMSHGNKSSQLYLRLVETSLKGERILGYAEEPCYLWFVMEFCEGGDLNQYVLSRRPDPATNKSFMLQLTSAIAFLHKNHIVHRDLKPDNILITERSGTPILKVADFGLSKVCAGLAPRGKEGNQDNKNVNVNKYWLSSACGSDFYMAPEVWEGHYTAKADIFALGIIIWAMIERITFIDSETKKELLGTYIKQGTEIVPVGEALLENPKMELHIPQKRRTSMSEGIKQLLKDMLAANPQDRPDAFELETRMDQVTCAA

`Clc1cc(NCC2CC2)c2ncc(-c3ccc4[nH]ncc4c3)n2n1` [compound 2, 6-Chloro-N-(cyclopropylmethyl)-3-(1H-indazol-5-yl)imidazo[1,2-b]pyridazin-8-amine]: the remaining binding at 1 µM in [1] was found to be 60%; on CDC2L1, 100%; on CDC2L5, 92%; at EGFR(L858R) it was 68%; in [2], 100%; at PDGFRA, 12%. In addition, the remaining binding at 1 µM turned out to be 72% at PIK3CA; 78% on QSK; 77% on STK35; 97% on SYK; 93% on TAOK1; 45% on YSK4.
Take `O=C(CN1CCOCC1)N[C@H]1CC[C@H](Nc2cc(Cl)nn3c(-c4ccc5[nH]ncc5c4)cnc23)CC1` [compound 26]: the remaining binding at 1 µM was found to be 6.2% in assay [1]; 100% on CDC2L1; 84% on CDC2L5; 83% at EGFR(L858R); 100% in assay [2]; 0.3% at PDGFRA. In addition, the remaining binding at 1 µM is 97% on PIK3CA; 82% at QSK; 97% on STK35; 100% on SYK; 85% at TAOK1; 23% at YSK4.
Consider `CN1CCC(CNc2cc(Cl)nn3c(-c4cc5nc(Nc6ccccc6)[nH]c5cc4F)cnc23)CC1` [compound 31, 6-Chloro-3-(6-fluoro-2-(phenylamino)-1H-benzo[d]imidazol-5-yl)-N-((1-methylpiperidin-4-yl)methyl)imidazo[1,2-b]pyridazin-8-amine], for which the remaining binding at 1 µM in [1] was 73%; at CDC2L1 it was 92%; at CDC2L5 it was 96%; on EGFR(L858R) it was 100%; in assay [2], 82%; at PDGFRA it was 94%. The remaining binding at 1 µM on PIK3CA was 90%; at QSK it was 100%; on STK35 it was 100%; on SYK, 92%; at TAOK1 it was 75%; on YSK4, 77%.
